This is an account of results in patent US8846951B2 (AbbVie Inc., priority 2009, dated 2014).

Like-named read-outs stand apart in the source and are kept apart here.

One may read the Ki as a dissociation constant, usually derived from enzyme kinetics or from competition with a known ligand. As usually defined, the Emax is the greatest response seen or fitted, relative to the assay's reference. In general, EC50 refers to the concentration needed to bring the measured effect to its halfway point.

One assay addresses T1, h-5-HT6 receptor (Homo sapiens, UniProt P50406).
T1 construct: expressed in transfected cells; host or cells: HEK293 cells (membranes)
Kind of assay: Human 5-HT6 receptor radioligand binding assay (HEK293 membranes, [3H]-LSD). The settings on record: HEK293 membranes expressing h-5-HT6 receptor, 1 nM [3H]-LSD; geometrical mean; read-out: Ki (5-HT6 Agonist Site Radioligand Binding). The method, then:
(v) Human 5-HT6 Receptor Radioligand Binding Assay
Preparation of Membranes by Ultrasonic Treatment and Differential Centrifugation
Cells from stable clonal cell lines expressing the corresponding receptor (5-HT6) were washed with PBS (without Ca^++, Mg^++) and harvested in PBS with 0.02% EDTA. The cells were collected by centrifugation at 500 g for 10 minutes at 4° C., washed with PBS and centrifuged (500 g, 10 minutes at 4° C.). The pellets were stored at −80° C. until use. For membrane preparation, the thawed cell pellet was resuspended in ice-cold sucrose buffer (0.25 M sucrose, 10 mM HEPES (pH 7.4), 1 mM phenylmethylsulfonyl fluoride (PMSF) in DMSO, 5 μg/ml Pepstatin-A, 3 mM EDTA, 0.025% Bacitracin) and homogenized with a Branson Sonifier W-250 (Settings: Timer 4; Output Control 3; Duty Cycle constant; 2 to 3 cycles). Cell disruption was checked with the aid of a microscope. Remaining unbroken cells were pelleted at 1,000 g for 10 minutes at 4° C. The sucrose buffer supernatant was then centrifuged at 60,000 g for 1 hour at 4° C. (Beckman Ultracentrifuge XL 80). The pellet was resuspended in 30 mL of ice-cold Tris buffer (20 mM TRIS (pH 7.4), 5 μg/mL Pepstatin A, 0.1 mM PMSF, 3 mM EDTA) by pipetting through a 10 mL serological pipette and centrifuged for 1 hour at 4° C. at 60,000 g. A final resuspension was performed in a small volume of ice-cold Tris buffer (see above) by pressing through a serological pipette followed by ultrasonic treatment with a Branson Sonifier W-250 (Settings: Timer 1; Output Control 3; Duty Cycle constant; 1 cycle). Protein concentration was determined (BCA-Kit; Pierce) and aliquots stored at −80° C. or in liquid nitrogen for long-term storage.
Receptor Binding Experiments
All receptor binding experiments were carried out in the corresponding assay buffer in a total volume of 200 μL in the presence of various concentrations of test compound (10^−5 M to 10^−9 M, tenfold serial dilution, duplicate determinations). The assays were terminated by filtration on polyethylenimine (PEI 0.1% or 0.3%) presoaked Packard Unifilter Plates (GF/C or GF/B) with a Tomtec MachIII U 96 well-plate harvester. After the plates had been dried for 2 hours at 55° C. in a drying chamber scintillation cocktail (BetaPlate Scint; PerkinElmer) was added. Radioactivity was measured in a Microbeta Trilux two hours after the addition of the scintillation mixture.
5-HT6 Receptor Binding Assay
HEK293 cells stably expressing the h-5-HT6 receptor (NCBI Reference Sequence XM 001435) were cultured in RPMI1640 medium supplemented with 25 mM HEPES, 10% fetal calf serum and 1-2 mM glutamine. The membrane preparation was performed as described above. […] On the day of the assay, the membranes were thawed, diluted in assay buffer (50 mM Tris-HCl, 5 mM CaCl2, 0.1% ascorbic acid, 10 μM pargyline, pH 7.4) to a concentration of 8 μg protein/assay and homogenized by gentle vortexing. […] Non-specific binding was defined with 1 μM methiothepin. The binding reaction was carried out for 3.5 hours at room temperature. During the incubation, the plates were shaken on a plate shaker at 100 rpm and terminated by filtration on Packard Unifilter GF/C (0.1% PEI) plates, followed by 2 wash cycles with ice-cold 50 mM Tris-HCl, 5 mM CaCl2.
Data derived from liquid scintillation counting were analyzed by iterative non-linear regression analysis with the use of the Statistical Analysis System (SAS): a program similar to “LIGAND” as described by Munson and Rodbard (Anal. Biochem. 1980, 107, 220-239). Fitting was performed according to formulae described by Feldman (Anal. Biochem. 1972, 48, 317-338). IC50 and Ki values were expressed as geometrical mean.

In the next assay the target is T2, 5HT2B receptors (Homo sapiens, UniProt P41595).
T2 construct: expressed in transfected cells; host or cells: CHO-K1 cells
The experiment in a line: Human 5-HT2B functional high throughput screening assay in CHO-K1 cells (calcium flux). As to conditions: for EC50: CHO-K1 cells, calcium flux; call rule not given here. The assay is classed as cell-based. In short, it runs like this:
(§1)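 Agonism is measured as intracellular calcium increase in receptor-overexpressing CHO-K1 cells, read by FLIPR at 25 °C. Responses are expressed relative to serotonin, with EC50 and Emax derived from a 4-parameter logistic curve over 6 concentrations starting at 10 μM.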

Assay [1] deals with T3, 5HT2C receptors (Homo sapiens, UniProt P28335).
T3 sequence (P28335 33-458): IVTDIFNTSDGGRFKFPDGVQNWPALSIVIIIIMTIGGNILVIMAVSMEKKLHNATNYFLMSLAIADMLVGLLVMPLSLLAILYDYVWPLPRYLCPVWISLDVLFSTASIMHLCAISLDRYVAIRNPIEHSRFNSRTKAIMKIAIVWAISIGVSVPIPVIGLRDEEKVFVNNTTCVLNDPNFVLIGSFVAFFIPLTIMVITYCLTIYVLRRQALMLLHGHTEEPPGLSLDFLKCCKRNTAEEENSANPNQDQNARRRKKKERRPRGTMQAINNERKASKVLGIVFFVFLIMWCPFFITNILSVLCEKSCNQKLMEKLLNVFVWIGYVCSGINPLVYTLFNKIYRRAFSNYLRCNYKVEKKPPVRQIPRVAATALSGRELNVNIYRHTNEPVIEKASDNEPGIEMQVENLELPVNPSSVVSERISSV
The experiment in a line: Human 5-HT2C functional high throughput screening assay in CHO-K1 cells (calcium flux). Also noted: expressed in transfected cells; host or cells: CHO-K1 cells. As to conditions: for Emax: 5-HT2C, maximum functional response as percentage relative to the effect of serotonin; for EC50: CHO-K1 cells, calcium flux. Type of assay: cell-based. In short, it runs like this: as §1
A general note: Calcium flux is commonly read through the fluorescence of an indicator in the cells.

Assay [2] deals with T4, human serotonin 5-HT2c receptor (Homo sapiens, UniProt P28335).
T4 construct: expressed in transfected cells; host or cells: CHO cells (membrane homogenates)
T4 sequence (P28335 33-458): T3 sequence (P28335 33-458)
Kind of assay: Human 5-HT2C receptor radioligand binding assay (agonist site, [125I]DOI). The settings on record: 5-HT2c agonist site; transfected CHO cell membranes; 0.2 nM [125I](±)DOI. The method, then: (i) Human 5-HT2C Receptor Radioligand Binding Assay
Affinity of compounds for the agonist site of the […], receptor in transfected CHO cells was determined in a radioligand binding assay essentially as described by Bryant, H. U., et al., Life Sciences (1996) 59(15), 1259-1268.

Assay [3] addresses T3, 5HT2C receptors. Kind of assay: Human 5-HT2C functional assay in 1321N1 cells (intracellular calcium, FLIPR). Also noted: expressed in transfected cells; host or cells: 1321N1 cells. The settings on record: 5-HT2c agonist activity, maximum calcium response. The assay is classed as cell-based. In short, it runs like this: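 Intracellular calcium (Fluo-4, FLIPR peak response) was measured in stably transfected human 5-HT2C 1321N1 cells after overnight serum-free culture. Compounds were applied at final 10^−10 to 10^−5 M either alone or together with 10^−9 M serotonin. Half-maximal effect concentration was derived by four-parameter logistic fitting.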

Where [4] appears, read: 5-HT2B, maximum functional response as percentage relative to the effect of serotonin.
[5] abbreviates: 5-HT2B agonist activity, read-out: EC50.
Setting [6] is: 5-HT2C agonist activity, read-out: EC50.

T2 sequence (P41595 whole entry): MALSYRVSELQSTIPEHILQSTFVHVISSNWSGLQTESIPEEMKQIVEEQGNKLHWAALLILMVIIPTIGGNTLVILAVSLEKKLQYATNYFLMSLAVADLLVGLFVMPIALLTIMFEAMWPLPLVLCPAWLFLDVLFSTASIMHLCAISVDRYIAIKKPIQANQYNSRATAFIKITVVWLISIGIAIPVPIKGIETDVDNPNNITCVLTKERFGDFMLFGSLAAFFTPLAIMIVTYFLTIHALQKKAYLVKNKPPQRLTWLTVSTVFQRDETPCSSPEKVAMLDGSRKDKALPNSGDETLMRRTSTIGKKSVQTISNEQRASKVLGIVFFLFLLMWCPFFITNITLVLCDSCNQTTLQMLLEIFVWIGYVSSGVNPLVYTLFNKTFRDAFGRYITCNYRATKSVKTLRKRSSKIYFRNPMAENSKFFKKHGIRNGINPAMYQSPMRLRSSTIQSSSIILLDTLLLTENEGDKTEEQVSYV
T1 sequence (P50406 whole entry): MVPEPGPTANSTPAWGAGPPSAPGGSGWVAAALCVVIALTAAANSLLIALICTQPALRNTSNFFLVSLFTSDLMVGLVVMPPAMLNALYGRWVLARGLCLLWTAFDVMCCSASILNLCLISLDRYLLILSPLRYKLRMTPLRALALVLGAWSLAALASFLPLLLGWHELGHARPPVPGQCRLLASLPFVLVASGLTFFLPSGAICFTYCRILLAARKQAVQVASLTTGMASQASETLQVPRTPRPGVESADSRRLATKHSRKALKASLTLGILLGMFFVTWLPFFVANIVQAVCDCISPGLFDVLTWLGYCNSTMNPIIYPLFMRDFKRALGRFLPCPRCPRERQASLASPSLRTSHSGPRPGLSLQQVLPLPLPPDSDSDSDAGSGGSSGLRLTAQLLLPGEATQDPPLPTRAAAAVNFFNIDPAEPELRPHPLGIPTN

“Trans-2-benzyl-5-(2-dichlorophenylsulfonyl)-1,2,3,3a,4,5,6,10b-octahydrobenzo[c]pyrrolo[3,4-e]azepine [Example 19]”: the inhibition constant (Ki) at h-5-HT6 receptor turned out to be 14.1 nM.

As for `O=C1NC[C@@H]2CN(Cc3ccccc3)C[C@H]2c2ccc(F)cc21` (relative stereo) [Example 55, Trans-2-benzyl-8-fluoro-1,2,3,3a,4,5-hexahydrobenzo[e]pyrrolo[3,4-c]azepin-6(10bH)-one], the Emax entry was “inactive” at 5HT2B receptors (setting [4]) and 120% on 5HT2C receptors [1] (CHO-K1). Further, the 50% effective concentration (EC50) at 5HT2B receptors (EC50, 5-HT2B agonist activity) is > 10000 nM; at 5HT2C receptors [1] (EC50, 5-HT2C agonist activity), 40 nM; at 5HT2C receptors [3], 10.6 nM. In addition, in assay [2], the Ki was found to be 9.1 nM.

In the case of `COC(=O)c1cccc(CN2C[C@H]3CNC(=O)c4ccccc4[C@@H]3C2)c1` (relative stereo) [Example 68, Trans-methyl-3-((6-oxo-1,3a,4,5,6,10b-hexahydrobenzo[e]pyrrolo[3,4-c]azepin-2(3H)-yl)methyl)benzoate], the figures for the EC50 at 5HT2B receptors (setting [5]), at 5HT2C receptors [1] (setting [6]) and on 5HT2C receptors [3] were > 10000 nM, 7 nM and 3.97 nM, respectively. The Emax result at 5HT2B receptors (setting [4]) was “inactive”; at 5HT2C receptors [1] (CHO-K1, read-out: Emax), 120%. The affinity in assay [2] corresponds to a Ki of 10 nM.

Take `O=S(=O)(c1cccc2ccccc12)N1Cc2ccccc2[C@@H]2CN(Cc3ccccc3)C[C@H]2C1` (relative stereo) [Example 13, Trans-2-benzyl-5-(naphthalen-1-ylsulfonyl)-1,2,3,3a,4,5,6,10b-octahydrobenzo[c]pyrrolo[3,4-e]azepine]: the Ki at h-5-HT6 receptor worked out at 37.5 nM.

In the case of `CN1C[C@H]2CNC(=O)c3ccccc3[C@@H]2C1` (relative stereo) [Example 69, Trans-2-methyl-1,2,3,3a,4,5-hexahydrobenzo[c]pyrrolo[3,4-e]azepin-6(10bH)-one], the Emax on 5HT2B receptors (CHO-K1) came out at 70%; at 5HT2C receptors [1] (CHO-K1), 120%. Moreover, the EC50 on 5HT2B receptors (EC50, 5-HT2B agonist activity) was 500 nM; on 5HT2C receptors [1] (EC50, 5-HT2C agonist activity), 9 nM; on 5HT2C receptors [3] it was 8.78 nM. Moreover, in assay [2], affinity was put at a Ki of 48 nM.

For the compound “(3aR,10bS)-1,2,3,3a,4,5-Hexahydrobenzo[e]pyrrolo[3,4-c]azepin-6(10bH)-one [Example 47]”, the values for the EC50 at 5HT2B receptors (setting [5]), on 5HT2C receptors [1] (setting [6]) and on 5HT2C receptors [3] were 20 nM, 0.3 nM and 0.575 nM, respectively. Also, the Emax at 5HT2B receptors (setting [4]) was 100%; on 5HT2C receptors [1] it was >120%. Also, the affinity in assay [2] corresponds to a Ki of 6.1 nM.

In the case of `O=S(=O)(c1ccccc1Br)N1Cc2ccccc2[C@@H]2CN(Cc3ccccc3)C[C@H]2C1` (relative stereo) [Example 11, Trans-2-benzyl-5-(2-bromophenylsulfonyl)-1,2,3,3a,4,5,6,10b-octahydrobenzo[c]pyrrolo[3,4-e]azepine], the Ki at h-5-HT6 receptor came out at 40.3 nM.

`O=C1NC[C@@H]2CNC[C@H]2c2ccc(F)cc21` (relative stereo) [Example 57, Trans-8-fluoro-1,2,3,3a,4,5-hexahydrobenzo[c]pyrrolo[3,4-e]azepin-6(10bH)-one]: the figures for the Emax on 5HT2B receptors (CHO-K1) and on 5HT2C receptors [1] (CHO-K1) were 100% and 120%, respectively. Further, the EC50 at 5HT2B receptors (EC50, 5-HT2B agonist activity) was determined as 700 nM; at 5HT2C receptors [1] (EC50, 5-HT2C agonist activity), 6 nM; at 5HT2C receptors [3], 7.67 nM. In assay [2], this compound displayed an inhibitory constant (Ki) of 26 nM.

For the compound `COc1cccc(S(=O)(=O)N2Cc3ccccc3[C@@H]3CN(Cc4ccccc4)C[C@H]3C2)c1` (relative stereo) [Example 18, Trans-2-benzyl-5-(3-methoxyphenylsulfonyl)-1,2,3,3a,4,5,6,10b-octahydrobenzo[c]pyrrolo[3,4-e]azepine], on h-5-HT6 receptor, the Ki was determined as 23.1 nM.

With `O=C1NC[C@@H]2CN(Cc3ccccc3)C[C@H]2c2c(F)cccc21` (relative stereo) [Example 65, Trans-2-benzyl-10-fluoro-1,2,3,3a,4,5-hexahydrobenzo[c]pyrrolo[3,4-e]azepin-6(10bH)-one], the EC50 was > 10000 nM at 5HT2B receptors (setting [5]), 20 nM at 5HT2C receptors [1] (setting [6]) and 20.2 nM at 5HT2C receptors [3]. Also, the Emax entry at 5HT2B receptors (setting [4]) is “inactive”; on 5HT2C receptors [1] (CHO-K1, read-out: Emax), 120%. This compound registered a Ki in assay [2] of 53 nM.

As to `Cc1ccc(C)c(S(=O)(=O)N2Cc3ccccc3[C@@H]3CN(Cc4ccccc4)C[C@H]3C2)c1` (relative stereo) [Example 17, Trans-2-benzyl-5-(2,5-dimethylphenylsulfonyl)-1,2,3,3a,4,5,6,10b-octahydrobenzo[c]pyrrolo[3,4-e]azepine], the inhibition constant (Ki) at h-5-HT6 receptor was determined as 55.1 nM.

For the compound `COc1cccc(CN2C[C@H]3CNC(=O)c4ccccc4[C@@H]3C2)c1` (relative stereo) [Example 28, Trans-2-(3-methoxybenzyl)-1,2,3,3a,4,5-hexahydrobenzo[c]pyrrolo[3,4-e]azepin-6(10bH)-one], the EC50 at 5HT2B receptors (setting [5]) was 70 nM; at 5HT2C receptors [1] (setting [6]), 1 nM; on 5HT2C receptors [3], 3.95 nM. In addition, the maximal response (Emax) at 5HT2B receptors (CHO-K1, 5-HT2B, maximum functional response as percentage relative to the effect of serotonin, read-out: Emax) is 55%; on 5HT2C receptors [1] (CHO-K1, read-out: Emax), > 120%. In assay [2], the Ki worked out at 14 nM.
